Reference: ChEMBL document CHEMBL5096158, “HIV latency reversal agents: A potential path for functional cure?” (Eur J Med Chem, 2021)

Assays:
[1] = test system: Human immunodeficiency virus 1; experiment: Reversal of HIV-1 latency in human PBMC from HIV infected donors assessed as increase in p24Gag viral protein level incubated for 24 hrs by ELISA; format: functional
[2] = molecular target: Protein kinase C gamma type (Homo sapiens, UniProt P05129); experiment: Displacement of 3H-PDBu from recombinant human PKCgamma incubated for 25 mins by scintillation counter analysis
[3] = Inhibition of HIV-1 latency infected in human U1 cells assessed as increase in p24 expression level incubated for 48 hrs by ELISA; format: functional, cell-based; details: Human immunodeficiency virus 1, U1, 48 h
[4] = test system: Human immunodeficiency virus 1; experiment: Reactivation of HIV-1 latency in human U1 cells assessed as fold increase in HIV transcription by measuring GFP expression at 6 nM incubated for 24 hrs in presence of JQ1 by flow cytometry; format: functional
[5] = test system: Human immunodeficiency virus 1; experiment: Reactivation of HIV-1 latency in human U1 cells assessed as fold increase in HIV transcription by measuring GFP expression at 6 nM incubated for 24 hrs by flow cytometry; format: functional
[6] = test system: Human immunodeficiency virus 1; experiment: Reversal of HIV-1 latency in human J-Lat 10.6 cells assessed as increase in GFP expression incubated for 24 hrs by flow cytometry; format: functional, organism-based; details: Human immunodeficiency virus 1, J-Lat 10.6, 24 h
[7] = test system: Human immunodeficiency virus 1; experiment: Reactivation of HIV-1 latency infected in GFP-fused human J-Lat C11 cells assessed as increase in GFP expression incubated for 48 hrs by flow cytometry; format: functional, organism-based; details: Human immunodeficiency virus 1, J-Lat C11, 48 h
[8] = test system: Human immunodeficiency virus 1; experiment: Reactivation of HIV-1 latency infected in GFP-fused human J-Lat 10.6 cells assessed as increase in GFP expression incubated for 48 hrs by flow cytometry; format: functional, organism-based; details: Human immunodeficiency virus 1, J-Lat 10.6, 48 h
[9] = test system: Human immunodeficiency virus 1; experiment: Reversal of HIV-1 latency in human J-Lat 8.4 cells assessed as increase in GFP expression incubated for 24 hrs by flow cytometry; format: functional, organism-based; details: Human immunodeficiency virus 1, J-Lat 8.4, 24 h
[10] = test system: Human immunodeficiency virus 1; experiment: Reversal of HIV-1 latency in human J-Lat 9.2 cells assessed as increase in GFP expression incubated for 24 hrs by flow cytometry; format: functional, organism-based; details: Human immunodeficiency virus 1, J-Lat 9.2, 24 h
[11] = Cytotoxicity against human PBMC cells assessed as reduction in cell viability incubated for 48 hrs by WST-8 assay; format: toxicity, cell-based
[12] = Cytotoxicity against human U1 cells assessed as reduction in cell viability incubated for 48 hrs by WST-8 assay; format: toxicity, cell-based
[13] = Cytotoxicity against human ACH-2 cells assessed as reduction in cell viability incubated for 48 hrs by WST-8 assay; format: toxicity, cell-based
[14] = test system: Human immunodeficiency virus 1; experiment: Reversal of HIV-1 latency in human ACH-2 cells assessed as increase in GFP positive cells incubated for 24 hrs by flow cytometry; format: functional, organism-based, ACH-2 cell line; details: Human immunodeficiency virus 1, ACH-2, 24 h
[15] = test system: Human immunodeficiency virus 1; experiment: Reactivation of HIV-1 latency infected in GFP-fused human J-Lat 9.2 cells assessed as increase in GFP expression at 1 uM incubated for 24 hrs by flow cytometry; format: functional
[16] = test system: Human immunodeficiency virus 1; experiment: Reactivation of HIV-1 latency in human CD4+ve Th cells assessed as increase in GFP expression at 3 nM incubated for 24 hrs by flow cytometry; format: functional
[17] = test system: Human immunodeficiency virus 1; experiment: Reactivation of HIV-1 latency in human J-Lat Tat-GFP Clone A1 cells assessed as increase in GFP expression at 375 pM incubated for 24 hrs by flow cytometry; format: functional
[18] = test system: Human immunodeficiency virus 1; experiment: Reactivation of HIV-1 latency in human J-Lat Tat-GFP Clone A1 cells assessed as increase in GFP expression at 23 pM incubated for 24 hrs by flow cytometry; format: functional

Structure (SMILES): CO[C@@H](CC[C@H](C)[C@H]1O[C@@]23C[C@H](OC(=O)C[C@H]([C@@H](C)O)OC(=O)C[C@](O)(O2)[C@H](C)CC3(C)C)[C@@H]1C)c1cc(O)ccc1Br [APLYSIATOXIN]
- Activity [1]: 56%

Structure (SMILES): CC1=C[C@H]2[C@@]3(O)[C@H](C)C[C@]4(OC(=O)Cc5cccc6ccccc56)[C@H]([C@@H]3C=C(CO)C[C@]2(O)C1=O)C4(C)C
- Ki [2]: 0.65 nM
- EC50 [3]: 10.2 nM

Structure (SMILES): C/C=C(\C)C(=O)O[C@H]1C(C)=C[C@]23C(=O)[C@H](C=C(CO)[C@@H](O)[C@]12O)C1C(C[C@H]3C)C1(C)C (some centres undefined)
- fold change (FC) [4]: 250
- fold change (FC) [5]: 25

Structure (SMILES): CC(=O)O[C@@]12C[C@@H](C)[C@@]3(O)[C@@H](C=C(CO)C[C@]4(O)C(=O)C(C)=C[C@@H]34)[C@@H]1C2(C)C [PROSTRATIN]
- EC50 [6]: 3.3 nM
- EC50 [7]: 768 nM
- EC50 [8]: 865 nM
- EC50 [9]: 11 nM
- EC50 [3]: > 1000 nM
- EC50 [10]: 45 nM

Structure (SMILES): CCCCCCCCCCc1ccc2c(c1)N(C)[C@@H](C(C)C)C(=O)NC(CO)C2 (some centres undefined)
- CC50 at 48 h [11]: 39900 nM
- CC50 at 48 h [12]: 61200 nM
- CC50 at 48 h [13]: 21100 nM
- EC50 [14]: 25 nM

Structure (SMILES): CCCc1nc2c(N)nc3ccccc3c2s1
- Activity [15]: 18%

Structure (SMILES): CCCCCC(=O)O[C@H]1C(C)=C[C@]23C(=O)[C@H](C=C(CO)[C@@H](O)[C@]12O)C1C(C[C@H]3C)C1(C)C (some centres undefined)
- Activity [16]: 100%
- Activity [17]: 50%
- Activity [18]: 20%
